From patent publication US7192742B2, “FO-6979 substances and process for producing the same” (Gakkou Houjin Kitasato Gakeun, priority 2001, dated 2007)
pIC50: −log10 of the molar value. Like-named read-outs stand apart in the source and are kept apart here.

How the values were obtained:
[1] = system: mouse peritoneal macrophage; assay: Toxicity test on growth of mouse peritoneal macrophage; assay type: cell-based; conditions: final concentration of 50 μM
Solubility in solvent = assay type: physicochemical
Source text: The thus obtained FO-6979-M0 substance, -M1 substance, -M2 substance, -M3 substance and -M4 substance exist in the cultured microorganism cells and the culture filtrate. Isolation of FO-6979-M0 substance, -M1 substance, -M2 substance, -M3 substance and -M4 substance from the cultured mass can be performed by extracting the whole cultured mass with water miscible organic solvent such as aceton, distilling off the organic solvent from the extract in vacuo, and extracting the residue with water immiscible organic solvent such as ethyl acetate. In addition to the above extraction procedure, conventional methods used for isolation of fat-soluble substances such as adsorption chromatography, gel filtration chromatography, thin-layer chromatography, counter current chromatography and high performance liquid chromatography can be used optionally in combination or repeatedly to isolate and purify FO-6979-M0 substance, -M1 substance, -M2 substance, -M3 substance and -M4 substance. Physicochemical properties of FO-6979 substances of the present invention are explained hereinbelow.

mice = assay: Toxicity test, intraperitoneal administration in mice; assay type: in vivo; conditions: administered intraperitoneally, 100 mg/kg
Description: Next, toxicity test of FO-6979 substances of the present invention was explained hereinbelow.
No toxicity was noted when FO-6979-M0 substance, -M1 substance, -M2 substance, -M3 substance and -M4 substance was administered intraperitoneally in mice with 100 mg/kg.

[2] = system: cholesteryl ester formation in mouse peritoneal macrophage; assay: Cholesteryl ester formation in mouse peritoneal macrophage ([14C] oleic acid incorporation); assay type: cell-based; conditions: for pIC50: 14 hours incubation, read-out: IC50, generation of [14C] cholesteryl olate
Description: Inhibitory action of FO-6979 substances of the present invention on cholesteryl ester formation in mouse peritoneal macrophage is explained.
Cholesteryl ester formation and lipid droplets formation in mouse peritoneal macrophage were performed according to a method of Namatame et al.(J. Biochem. 125: 319–327, 1999). Macrophage isolated from mouse peritoneal fluid was suspended at 2.0×10^6 cells/ml in Dulbecco's modified Eagle's medium containing 6.8% lipoprotein deficient serum (6.8% LPDS-DMEM) and aliquots (0.25 ml) were dispensed into a 48-well microplate (Corning Co.).
(§1) The plate was incubated in a humidified 5% CO2 atmosphere incubator at 37° C. for 2 hours, after which each plate was washed with Hank's solution to remove the unattached cells. The plate was incubated in 6.8% LPDS-DMEM for 1 hour, and each one of FO-6979 substances (2.5 μl 1 methanol solution), liposome [consisting of phosphatidylcholine/phosphatidylserine/dicetylphosphate/cholesterol=10:10:2:15 (nmol) in 10 μl of 0.3 M glucose] and [1-^14C] oleic acid (5 μl, 0.05 μCi, 1 nmol) were added therein, then incubated further 14 hours.
After the incubation, supernatant was removed and the intracellular neutral lipids were extracted twice with adding hexane 0.6 ml and isopropanol 0.4 ml. The mixture was concentrated, spotted on TLC plate (silica gel plate, Merck Co., thickness 0.5 mm) and developed and with a mixed solvent of hexane/diethyl ether/acetia acid(70:30:1, v/v). The separated [^14C] cholesteryl olate and [^14C] triacylglycerol were quantitatively assayed using radio scanner (Ambis Co.).

[3] = target: T1, acyl-CoA: cholesterol acyltransferase derived from mouse; assay: Acyl-CoA: cholesterol acyltransferase activity assay, mouse liver microsome membrane fraction, [1-14C] oleoyl-CoA; assay type: biochemical; conditions: 37° C. for 10 minutes, read-out: IC50, concentration which inhibits 50% of Acyl-CoA: cholesterol acyltransferase activity
T1 construct: A membrane fraction derived from mouse liver microsome was used as an enzyme origin
Description: Inhibitory activities of FO 6979-M0 substance, -M1 substance, -M2 substance, -M3 substance and -M4 substance of the present invention (hereinafter totally designates as FO-6979 substances) on acyl-CoA: cholesterol acyltransferase derived from mouse are explained hereinbelow.
Acyl-CoA: cholesterol acyltransferase activity was assayed by the modified method of Uelmen, et al. (J. Biol. Chem. 270: 26192–26201, 1995). A membrane fraction derived from mouse liver microsome was used as an enzyme origin. A mouse liver was homogenized with buffer A [50 mM Tris-HCL (pH 7.8), 1 mM EDTA and 1 mM phenylmethanesulfonyl fluoride] using Potter homogenizer (Tokyo-RIKO Inc.).
The homogenate was centrifuged at 12,000×g, and the supernatant solution was ultracentrifuged at 100,000×g to obtain the microsome fraction which was prepared for a solution with protein concentration 5 mg/ml by adding the buffer A. Assay of acyl-CoA: cholesterol acyltransferase activity was performed by adding enzyme 200 μg protein, […] bovine serumu alubumin, [1-^14C] oleoyl-CoA (final concentration 170 μM, 0.09 μCi) and each FO-6979 substance into the buffer A to prepare total 100 μl solution and incubated at 37° C. for 10 minutes.
Subsequently, the reaction was terminated by adding 0.5 ml ethanol and added 1.5 ml hexane therein, then stirred well. Hexane layer 1 ml was dried up and was spotted on TLC plate (silica gel plate, thickness 0.5 mm, Merck Co., U.S.A.) which was developed with a solvent mixture, petroleum ether/diethyl ether/acetic acid (90:10:1, v/v). The generated [^14C] cholesteryl olate was quantitative measured using radio scanner (Ambis Co.). Results indicating concentration which inhibits 50% of Acyl-CoA: cholesterol acyltransferase activity of FO-6979 substances (-M0 substance˜-M4 substance) (IC50) are shown in the following table.

[4] = system: lipid droplets formation in mouse peritoneal macrophage; assay: Lipid droplets formation in mouse peritoneal macrophage (oil red O / hematoxylin staining); assay type: cell-based; conditions: 20 μM, 14 hours
Description: Inhibitory action of FO-6979 substances of the present invention on lipid droplets formation in mouse peritoneal macrophage is explained.
Lipid droplets formation in mouse peritoneal macrophage was performed according to the method of Namatame et al. (J. Biochem. 125:319–327, 1999). Macrophage isolated from mouse peritoneal fluid was suspended at 2.0×10^6 cells/ml in Dulbecco's modified Eagle's medium containing 6.8% lipoprotein deficient serum (6.8% LPDS-DMEM) and aliquots (0.25 ml) were dispensed into a slide chamber (Nunc Co.).
as §1, with “chamber” for “plate”, “the chamber” for “each plate”, “FO-6979-M3 substance” for “each one of FO-6979 substances”, “μl” for “μl 1”, “solution) and” for “solution),”, “glucose]” for “glucose] and [1-^14C] oleic acid (5 μl, 0.05 μCi, 1 nmol)”
The lipid droplets and nuclei were double stained with oilred O and hematoxylin, and observed by optical microscope (Olympus OpticalCo., Japan).

[5] = Mus musculus, Peritoneal macrophage, 14 h

Row | SMILES | toxicity for growth of mouse peritoneal macrophage [1] | Solubility in solvent: methanol, benzene, chloroform and ethyl acetate (Solubility in solvent) | Solubility in solvent: water and hexane (Solubility in solvent) | toxicity in mice (mice) | pIC50 [2, 5] | pIC50 [3] | inhibition at 45 µM ([2]; at 45 μM, read-out: inhibition of [14C] cholesteryl olate generation) | pIC50 [2] | lipid droplets accumulated in cytoplasm, decreased to % as compared with no drug addition (control) [4]
1 | CCCCC(C)C1CC(=O)N[C@@H](C(C)C)C(=O)N[C@@H](C)C(=O)N[C@H](C(C)C)C(=O)O1 (stereo partly drawn) [FO-6979-M0 substance] | No toxicity | soluble | slight soluble | No toxicity | < 4.60 | < 4.30 |  |  | 
2 | CCCCC(C)C1CC(=O)N[C@@H](C(C)C)C(=O)N[C@@H](C)C(=O)N[C@H]([C@@H](C)CC)C(=O)O1 (stereo partly drawn) [FO-6979-M1 substance] | No toxicity | soluble | slightly soluble | No toxicity | < 4.35 | < 4.30 | 20% |  | 
3 | CCCCC(C)C1CC(=O)N[C@@H](C(C)C)C(=O)N[C@@H](C)C(=O)N[C@H](CC(C)C)C(=O)O1 (stereo partly drawn) [FO-6979-M2 substance] | No toxicity | Soluble | slightly soluble | No toxicity |  |  |  | < 4.60 | 
4 | CCCCC(C)C1CC(=O)N[C@@H](Cc2ccccc2)C(=O)N[C@@H](C)C(=O)N[C@H](C(C)C)C(=O)O1 (stereo partly drawn) [FO-6979-M3 substance] | No toxicity | soluble | slightly soluble | No toxicity | 4.68 | 4.40 |  | < 4.60 | about 50%
5 | CCCCCCC(C)C1CC(=O)N[C@@H](C(C)C)C(=O)N[C@@H](C)C(=O)N[C@H]([C@@H](C)CC)C(=O)O1 (stereo partly drawn) [FO-6979-M4 substance] | No toxicity | soluble | slightly soluble | No toxicity |  |  |  |  | 
